Where two headings read alike, the source gives them in different places. Numbered stars: 1 amine (or outer) side, 2 acyl side, 3 side chain; on linkers, the order of the positions; unused ones are H or OH. Bridge positions count the residues as written; N and C are the ends. Square brackets hold non-standard residues; d marks the D form. Peptide text beside a SMILES is read from it. I, II: the chains in the order shown. X3 = O=C(COCC(=O)NCCC(=O)[*:2])NCCC(=O)[*:1]; Bip = N[C@@H](Cc1ccc(-c2ccccc2)cc1)C(=O)O; 1Nal = N[C@@H](Cc1cccc2ccccc12)C(=O)O; 2Nal = N[C@@H](Cc1ccc2ccccc2c1)C(=O)O; Diglycolyl = O=C(COCC(=O)[*:2])[*:1]; NMeR = CN[C@@H](CCCNC(=N)N)C(=O)O; β3hE = N[C@@H](CCC(=O)O)CC(=O)O; NMeK = CN[C@@H](CCCCN)C(=O)O; Pen = CC(C)(S)[C@H](N)C(=O)O; dNMeK = CN[C@H](CCCCN)C(=O)O
Assays:
[1] = target: α4β7 (Homo sapiens, UniProt P13612+P26010); experiment: α4β7-MAdCAM Cell Adhesion Assay (RPMI 8866 human cells); type: cell-based; parameters: host or cells: RPMI 8866 human B lymphoblastoid cells; conditions: Table 3-B, Potency (α4β7); range classes; read-out: α4β7 cell (Hu) IC50
In short: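 Washed RPMI 8866 cells (200,000/well) in DMEM with 0.1% BSA, 10 mM HEPES pH 7, 1 mM MnCl2 adhered to rh MAdCAM-1/Fc-coated wells with serially diluted peptides, 30-45 min at 37 °C. After three washes, bound cells quantified by MTT, A570, cell-free background subtracted for dose response.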

[2] = target: T1, α4β1 (Homo sapiens, UniProt P05556+P13612, DEL729-798); experiment: α4β1-VCAM Competition ELISA; type: binding; conditions: Table 3-B, Selectivity (α4β1); range classes; read-out: α4β1 ELISA IC50
T1 construct: purchased R&D Systems 5668-A4
Procedure: A Nunc MaxiSorp plate was coated with rh VCAM-1/CD106 Fc chimera (R&D #862-VC) at 400 ng/well in 50 ul per well in 1×PBS and incubated overnight at 4° C. The solution was removed by shaking and then blocked with 250 ul of 1% BSA in 1×PBS per well. The wells were then incubated at room temperature for 1 hr with shaking. Each well was then washed once with wash buffer (50 mM Tris-HCl pH7.6, 100 mM NaCL, 1 mM MnCl2 or MgCl2, 0.05% Tween-20). 25 ul of serial dilutions of peptides starting at 200 μM in assay buffer (Assay buffer: 50 mM Tris-HCl pH7.6, 100 mM NaCl, 1 mM MnCl2 or MgCl2, 0.05% Tween-20) was added to each well. Additionally, 25 ul of α4β1 (R&D Systems #5668-A4) was added to each well at a fixed concentration of 120 nM. The final peptide and α4β1 concentrations were 100 μM and 60 nM, respectively. The plates were then incubated at 37° C. for 2 hr. The solution was then removed by shaking, and each well was washed three times with wash buffer. 50 ul of 9F10 antibody at 4 ug/ml (purified mouse anti-human CD49d, BD Bioscience Cat#555502) was then added to each well, and the plate was incubated at room temperature for 1 hr with shaking. The solution was again removed by shaking, and each well was washed three times with wash buffer. 50 ul of peroxidase-conjugated AffiniPure Goat anti-mouse IgG (Jackson immune research cat #115-035-003) diluted in 1:5000 in assay buffer was added to each well. The plate was incubated at room temperature for 30 min with shaking. Each well was then washed 3 times with wash buffer. 100 ul of TMB was then added to each well and closely observe during developing time. The reaction was stepped with 2N H2SO4 and absorbance was read at 450 nm.

[3] = target: T2, rh integrin α4β7 (Homo sapiens, UniProt P13612+P26010); experiment: α4β7-MAdCAM Competition ELISA; type: binding; conditions: Table 3-B, Potency (α4β7); range classes; read-out: α4β7 ELISA IC50
T2 construct: purchased R&D Systems 5397-A30
Procedure: A nickel coated plate (Pierce #15442) was coated with rh integrin α4β7 (R&D Systems #5397-A30) at 800 ng/well and incubated at room temperature with shaking for 1 hr. The solution was then removed by shaking and blocked with assay buffer (50 mM Tris-HCl pH7.6, 150 mM NaCl, 1 mM MnCl2 or MgCl2, 0.05% Tween-20 and 0.5% BSA) at 250 ul/well. The plate was then incubated at room temperature for 1 hr. Each well was washed 3 times with wash buffer (50 mM Tris-HCl pH7.6, 100 mM NaCl, 1 mM MnCl2 or MgCl2, 0.05% Tween-20). To each well was added 25 ul of a serial dilution (3-fold dilutions in assay buffer) of peptide starting at 20 μM. 25 ul of recombinant human MAdCAM-1 (R&D Systems #6056-MC) was then added to each well at a fixed concentration 20 nM. The final starting peptide concentration was 10 μM, and the final MAdCAM-1 concentration was 10 nM. The plates were then incubated at room temperature for 1 hr to reach binding equilibrium. The wells were then washed three times with wash buffer. 50 ul of mouse anti-human IgG1-HRP (Invitrogen # A10648) diluted in 1:2000 in assay buffer was then added to each well. The wells were incubated at room temperature for 45 min with shaking. The wells were then washed 3 times with wash buffer. 100 ul of 3,3′,5,5′-Tetramethylbenzidine (TMB) were then added to each well and closely observe during development time. The reaction was stopped with 2N H2SO4 and absorbance was read at 450 nm.
TMB is a chromogenic substrate suitable for use in ELISA procedures, which utilize horseradish peroxidase conjugates. This substrate produces a soluble end product that is blue in color and can be read spectrophotometrically at 370 or 655 nm. The reaction maybe stopped with 2 M H2S04, resulting in a yellow solution that is read at 450 nm. Each tablet contains 1 mg of TMB substrate. To prepare TMB Substrate Solution, dissolve one 3,3′,5,5′-tetramethylbenzidine tablet in 1 ml of DMSO and add to 9 ml of 0.05 M Phosphate-Citrate Buffer, pH 5.0. Add 2 μl of fresh 30% hydrogen peroxide (Product No. H 1009) per 10 ml of substrate buffer solution, immediately prior to use.

[4] = Simulated Intestinal Fluid (SIF) Stability Assay; type: in vitro ADME, porcine; conditions: pig, pH 6.5, Table 3-B, > means experiment was stopped at that time and half life was not reached, read-out: Stabilty SIF t1/2
In short: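 Peptides (22 μM final) incubated at 37 °C in FASSIF (pH 6.5) with 1% porcine pancreatin; aliquots quenched at various times and analyzed by LC-MS/MS against internal standard. Half-life from first-order exponential decay fit of percent remaining.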

T1 sequence (P13612 34-977 limits assumed, stated change not applied): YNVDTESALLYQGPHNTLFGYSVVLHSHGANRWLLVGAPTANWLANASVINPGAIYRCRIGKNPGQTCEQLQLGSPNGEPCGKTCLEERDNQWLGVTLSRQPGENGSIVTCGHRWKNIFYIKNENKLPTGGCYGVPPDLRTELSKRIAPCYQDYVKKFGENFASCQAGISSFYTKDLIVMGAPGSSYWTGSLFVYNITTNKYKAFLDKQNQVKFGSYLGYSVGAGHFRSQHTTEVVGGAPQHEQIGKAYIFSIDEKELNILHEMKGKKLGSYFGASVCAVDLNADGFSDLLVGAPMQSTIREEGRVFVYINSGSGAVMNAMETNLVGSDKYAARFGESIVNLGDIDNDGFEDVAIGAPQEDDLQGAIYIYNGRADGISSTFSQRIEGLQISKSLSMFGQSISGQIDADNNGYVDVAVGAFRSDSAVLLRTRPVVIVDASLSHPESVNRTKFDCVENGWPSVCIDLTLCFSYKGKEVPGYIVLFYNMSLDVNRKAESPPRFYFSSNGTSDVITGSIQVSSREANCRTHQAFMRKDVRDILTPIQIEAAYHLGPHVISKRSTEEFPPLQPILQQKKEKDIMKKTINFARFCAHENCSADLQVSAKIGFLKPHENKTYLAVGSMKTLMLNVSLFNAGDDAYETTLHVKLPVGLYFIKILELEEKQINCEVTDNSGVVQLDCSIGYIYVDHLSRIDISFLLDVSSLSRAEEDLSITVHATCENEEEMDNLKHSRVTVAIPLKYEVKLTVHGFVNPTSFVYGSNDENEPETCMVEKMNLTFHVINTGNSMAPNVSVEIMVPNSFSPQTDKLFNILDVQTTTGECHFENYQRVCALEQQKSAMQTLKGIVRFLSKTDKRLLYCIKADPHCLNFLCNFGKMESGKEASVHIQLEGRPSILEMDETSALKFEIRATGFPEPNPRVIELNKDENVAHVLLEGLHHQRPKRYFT
T1 sequence (P05556 21-728 limits assumed, stated change not applied): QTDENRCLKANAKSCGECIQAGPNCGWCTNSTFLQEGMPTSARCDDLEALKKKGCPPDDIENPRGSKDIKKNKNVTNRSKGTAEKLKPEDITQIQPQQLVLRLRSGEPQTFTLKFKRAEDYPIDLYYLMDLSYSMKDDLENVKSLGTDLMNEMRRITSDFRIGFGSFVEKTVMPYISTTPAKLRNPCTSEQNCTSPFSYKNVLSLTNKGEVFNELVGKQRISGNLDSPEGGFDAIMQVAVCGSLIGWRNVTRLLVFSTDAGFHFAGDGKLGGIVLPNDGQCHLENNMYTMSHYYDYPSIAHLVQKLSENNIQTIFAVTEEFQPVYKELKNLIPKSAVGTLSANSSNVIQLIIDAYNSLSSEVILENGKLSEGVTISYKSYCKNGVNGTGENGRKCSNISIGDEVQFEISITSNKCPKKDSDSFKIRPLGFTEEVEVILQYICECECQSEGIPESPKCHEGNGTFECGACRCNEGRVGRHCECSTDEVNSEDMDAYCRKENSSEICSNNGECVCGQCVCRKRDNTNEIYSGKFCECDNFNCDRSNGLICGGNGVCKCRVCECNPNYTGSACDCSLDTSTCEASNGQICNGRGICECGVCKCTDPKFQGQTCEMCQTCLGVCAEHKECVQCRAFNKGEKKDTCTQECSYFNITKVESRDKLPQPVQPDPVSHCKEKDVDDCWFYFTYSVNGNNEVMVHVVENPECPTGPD
T2 sequence (P13612 34-977 limits assumed): as the sequence (P13612 34-977 limits assumed, stated change not applied) above
T2 sequence (P26010 20-723 limits assumed): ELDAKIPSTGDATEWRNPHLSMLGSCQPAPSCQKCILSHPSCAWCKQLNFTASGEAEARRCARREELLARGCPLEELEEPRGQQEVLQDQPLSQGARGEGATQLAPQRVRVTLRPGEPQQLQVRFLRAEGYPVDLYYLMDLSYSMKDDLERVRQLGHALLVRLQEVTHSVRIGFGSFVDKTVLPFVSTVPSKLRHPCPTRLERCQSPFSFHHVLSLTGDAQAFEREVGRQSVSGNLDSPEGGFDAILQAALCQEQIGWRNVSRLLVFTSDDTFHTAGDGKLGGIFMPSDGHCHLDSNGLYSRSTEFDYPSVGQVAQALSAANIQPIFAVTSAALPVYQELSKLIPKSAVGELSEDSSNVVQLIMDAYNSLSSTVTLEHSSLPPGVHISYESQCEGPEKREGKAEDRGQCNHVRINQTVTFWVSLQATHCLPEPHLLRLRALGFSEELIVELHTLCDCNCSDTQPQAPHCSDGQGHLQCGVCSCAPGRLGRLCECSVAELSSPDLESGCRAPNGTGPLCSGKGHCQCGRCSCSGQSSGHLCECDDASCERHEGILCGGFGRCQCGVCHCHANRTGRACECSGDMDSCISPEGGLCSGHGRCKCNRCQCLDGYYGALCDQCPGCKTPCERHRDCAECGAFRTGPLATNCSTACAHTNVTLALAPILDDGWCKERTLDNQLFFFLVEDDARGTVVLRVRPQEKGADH
Sequence of α4β7 (P13612 34-1032): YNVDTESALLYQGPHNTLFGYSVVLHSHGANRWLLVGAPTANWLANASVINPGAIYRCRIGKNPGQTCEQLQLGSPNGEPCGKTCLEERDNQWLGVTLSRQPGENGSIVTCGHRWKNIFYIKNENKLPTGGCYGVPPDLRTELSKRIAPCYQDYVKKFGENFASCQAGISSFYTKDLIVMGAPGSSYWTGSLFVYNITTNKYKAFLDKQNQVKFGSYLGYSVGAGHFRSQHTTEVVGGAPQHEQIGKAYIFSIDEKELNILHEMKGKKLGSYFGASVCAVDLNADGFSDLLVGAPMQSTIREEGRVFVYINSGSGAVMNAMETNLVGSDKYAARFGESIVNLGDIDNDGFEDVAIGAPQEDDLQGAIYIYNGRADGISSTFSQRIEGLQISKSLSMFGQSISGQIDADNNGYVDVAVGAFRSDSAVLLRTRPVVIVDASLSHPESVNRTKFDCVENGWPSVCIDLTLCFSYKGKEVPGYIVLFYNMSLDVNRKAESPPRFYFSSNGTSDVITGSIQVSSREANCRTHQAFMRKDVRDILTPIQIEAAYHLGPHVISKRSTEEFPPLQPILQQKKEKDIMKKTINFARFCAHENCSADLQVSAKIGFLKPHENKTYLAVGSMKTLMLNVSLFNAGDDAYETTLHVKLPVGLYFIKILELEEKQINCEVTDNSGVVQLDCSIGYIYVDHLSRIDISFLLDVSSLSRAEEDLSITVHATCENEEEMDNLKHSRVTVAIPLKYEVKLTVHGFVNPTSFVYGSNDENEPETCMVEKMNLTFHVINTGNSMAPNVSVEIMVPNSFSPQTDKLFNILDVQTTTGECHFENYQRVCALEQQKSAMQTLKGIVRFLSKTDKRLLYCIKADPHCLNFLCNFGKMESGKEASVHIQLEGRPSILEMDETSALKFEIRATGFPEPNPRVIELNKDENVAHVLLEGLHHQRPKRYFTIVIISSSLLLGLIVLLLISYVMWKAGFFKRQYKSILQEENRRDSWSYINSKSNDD
Sequence of α4β7 (P26010 20-798): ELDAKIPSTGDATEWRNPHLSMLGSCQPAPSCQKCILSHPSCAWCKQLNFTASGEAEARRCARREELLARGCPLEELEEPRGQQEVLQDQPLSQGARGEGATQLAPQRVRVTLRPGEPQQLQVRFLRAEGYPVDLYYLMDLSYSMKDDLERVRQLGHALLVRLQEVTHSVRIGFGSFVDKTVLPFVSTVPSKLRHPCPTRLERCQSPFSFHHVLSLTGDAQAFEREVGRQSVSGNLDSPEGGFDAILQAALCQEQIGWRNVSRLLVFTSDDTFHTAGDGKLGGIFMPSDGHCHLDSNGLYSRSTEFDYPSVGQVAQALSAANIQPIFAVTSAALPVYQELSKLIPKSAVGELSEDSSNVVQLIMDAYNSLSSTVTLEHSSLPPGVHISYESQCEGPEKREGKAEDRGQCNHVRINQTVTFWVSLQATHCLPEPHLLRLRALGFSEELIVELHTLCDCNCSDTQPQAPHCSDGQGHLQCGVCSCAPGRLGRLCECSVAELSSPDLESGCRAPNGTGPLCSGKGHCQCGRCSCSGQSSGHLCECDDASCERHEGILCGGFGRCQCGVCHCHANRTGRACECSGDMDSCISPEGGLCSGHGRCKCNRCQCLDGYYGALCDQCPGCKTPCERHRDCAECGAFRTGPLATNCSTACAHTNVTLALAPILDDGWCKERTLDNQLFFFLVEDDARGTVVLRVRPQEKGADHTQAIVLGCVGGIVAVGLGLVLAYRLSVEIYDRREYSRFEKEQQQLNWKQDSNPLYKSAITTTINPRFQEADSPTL

Structure (SMILES): CC(=O)N[C@@H]1C(=O)N(C)[C@@H](CCCNC(=N)N)C(=O)N[C@@H](CO)C(=O)N[C@@H](CC(=O)O)C(=O)N[C@@H]([C@@H](C)O)C(=O)N[C@@H](CC(C)C)C(=O)N[C@H](C(=O)N[C@@H](Cc2c[nH]c3ccccc23)C(=O)N[C@@H](CCC(=O)O)CC(=O)N(C)[C@@H](CCCCNC(=O)COCC(=O)NCCCC[C@@H](C(N)=O)N(C)C(=O)C[C@H](CCC(=O)O)NC(=O)[C@H](Cc2c[nH]c3ccccc23)NC(=O)[C@H]2NC(=O)[C@H](CC(C)C)NC(=O)[C@H]([C@@H](C)O)NC(=O)[C@H](CC(=O)O)NC(=O)[C@H](CO)NC(=O)[C@H](CCCNC(=N)N)N(C)C(=O)[C@@H](NC(C)=O)C(C)(C)SSC2(C)C)C(N)=O)C(C)(C)SSC1(C)C [compound 141] (I: Ac-[Pen][NMeR]SDTL[Pen]W[β3hE][NMeK]-NH2 / II: Ac-[Pen][NMeR]SDTL[Pen]W[β3hE][NMeK]-NH2; disulfide I:1-I:7, II:1-II:7; linker I:10-II:10 via Diglycolyl)
- IC50 [1]: < 10 nM
- IC50 [2]: 500 to 1000 nM
- IC50 [3]: < 10 nM

Structure (SMILES): CC(=O)N[C@@H]1C(=O)N(C)[C@@H](CCCNC(=N)N)C(=O)N[C@@H](CO)C(=O)N[C@@H](CC(=O)O)C(=O)N[C@@H]([C@@H](C)O)C(=O)N[C@@H](CC(C)C)C(=O)N[C@H](C(=O)N[C@@H](Cc2ccc(-c3ccccc3)cc2)C(=O)N[C@@H](CCC(=O)O)C(=O)N[C@H](CCCCNC(=O)COCC(=O)NCCCC[C@@H](NC(=O)[C@H](CCC(=O)O)NC(=O)[C@H](Cc2ccc(-c3ccccc3)cc2)NC(=O)[C@H]2NC(=O)[C@H](CC(C)C)NC(=O)[C@H]([C@@H](C)O)NC(=O)[C@H](CC(=O)O)NC(=O)[C@H](CO)NC(=O)[C@H](CCCNC(=N)N)N(C)C(=O)[C@@H](NC(C)=O)C(C)(C)SSC2(C)C)C(N)=O)C(N)=O)C(C)(C)SSC1(C)C [compound 134] (I: Ac-[Pen][NMeR]SDTL[Pen][Bip]E[dK]-NH2 / II: Ac-[Pen][NMeR]SDTL[Pen][Bip]E[dK]-NH2; disulfide I:1-I:7, II:1-II:7; linker I:10-II:10 via Diglycolyl)
- IC50 [1]: < 10 nM
- IC50 [2]: 100 to 500 nM
- IC50 [3]: < 10 nM

Structure (SMILES): CC(=O)N[C@@H]1C(=O)N(C)[C@@H](CCCNC(=N)N)C(=O)N[C@@H](CO)C(=O)N[C@@H](CC(=O)O)C(=O)N[C@@H]([C@@H](C)O)C(=O)N[C@@H](CC(C)C)C(=O)N[C@H](C(=O)N[C@@H](Cc2ccc3ccccc3c2)C(=O)N[C@@H](CCC(=O)O)CC(=O)N[C@H](CCCCNC(=O)COCC(=O)NCCCC[C@@H](NC(=O)C[C@H](CCC(=O)O)NC(=O)[C@H](Cc2ccc3ccccc3c2)NC(=O)[C@H]2NC(=O)[C@H](CC(C)C)NC(=O)[C@H]([C@@H](C)O)NC(=O)[C@H](CC(=O)O)NC(=O)[C@H](CO)NC(=O)[C@H](CCCNC(=N)N)N(C)C(=O)[C@@H](NC(C)=O)C(C)(C)SSC2(C)C)C(N)=O)C(N)=O)C(C)(C)SSC1(C)C [compound 137] (I: Ac-[Pen][NMeR]SDTL[Pen][2Nal][β3hE][dK]-NH2 / II: Ac-[Pen][NMeR]SDTL[Pen][2Nal][β3hE][dK]-NH2; disulfide I:1-I:7, II:1-II:7; linker I:10-II:10 via Diglycolyl)
- IC50 [1]: < 10 nM
- IC50 [2]: 1000 to 10000 nM
- IC50 [3]: < 10 nM

Structure (SMILES): CC(C)C[C@@H]1NC(=O)[C@H]([C@@H](C)O)NC(=O)[C@H](CC(=O)O)NC(=O)[C@H](CO)NC(=O)[C@H](CCCNC(=N)N)N(C)C(=O)[C@@H](NC(=O)CCNC(=O)COCC(=O)NCCC(=O)N[C@@H]2C(=O)N(C)[C@@H](CCCNC(=N)N)C(=O)N[C@@H](CO)C(=O)N[C@@H](CC(=O)O)C(=O)N[C@@H]([C@@H](C)O)C(=O)N[C@@H](CC(C)C)C(=O)N[C@H](C(=O)N[C@@H](Cc3c[nH]c4ccccc34)C(=O)N[C@@H](CCC(=O)O)C(N)=O)C(C)(C)SSC2(C)C)C(C)(C)SSC(C)(C)[C@@H](C(=O)N[C@@H](Cc2c[nH]c3ccccc23)C(=O)N[C@@H](CCC(=O)O)C(N)=O)NC1=O [compound 54] (I: [Pen][NMeR]SDTL[Pen]WE-NH2 / II: [Pen][NMeR]SDTL[Pen]WE-NH2; disulfide I:1-I:7, II:1-II:7; linker I:N-II:N via X3)
- IC50 [1]: 25 to 50 nM
- half-life at 22 μM ([4]; simulated intestinal fluid (SIF) with porcine pancreatin): 32 min
- IC50 [2]: 100 to 500 nM

Structure (SMILES): CC(=O)N[C@@H]1C(=O)N(C)[C@@H](CCCNC(=N)N)C(=O)N[C@@H](CO)C(=O)N[C@@H](CC(=O)O)C(=O)N[C@@H]([C@@H](C)O)C(=O)N[C@@H](CC(C)C)C(=O)N[C@H](C(=O)N[C@@H](Cc2cccc3ccccc23)C(=O)N[C@@H](CCC(=O)O)C(=O)N(C)[C@H](CCCCN)C(N)=O)C(C)(C)SSC1(C)C [compound 18] (Ac-[Pen][NMeR]SDTL[Pen][1Nal]E[dNMeK]-NH2; disulfide 1-7)
- IC50 [2]: 500 to 1000 nM
- IC50 [3]: 10 to 25 nM

Structure (SMILES): CC(=O)N[C@@H]1C(=O)N(C)[C@@H](CCCNC(=N)N)C(=O)N[C@@H](CO)C(=O)N[C@@H](CC(=O)O)C(=O)N[C@@H]([C@@H](C)O)C(=O)N[C@@H](CC(C)C)C(=O)N[C@H](C(=O)N[C@@H](Cc2ccc3ccccc3c2)C(=O)N[C@@H](Cc2ccc(O)cc2)C(=O)N[C@H](CCCCNC(=O)COCC(=O)NCCCC[C@@H](NC(=O)[C@H](Cc2ccc(O)cc2)NC(=O)[C@H](Cc2ccc3ccccc3c2)NC(=O)[C@H]2NC(=O)[C@H](CC(C)C)NC(=O)[C@H]([C@@H](C)O)NC(=O)[C@H](CC(=O)O)NC(=O)[C@H](CO)NC(=O)[C@H](CCCNC(=N)N)N(C)C(=O)[C@@H](NC(C)=O)C(C)(C)SSC2(C)C)C(N)=O)C(N)=O)C(C)(C)SSC1(C)C [compound 23] (I: Ac-[Pen][NMeR]SDTL[Pen][2Nal]Y[dK]-NH2 / II: Ac-[Pen][NMeR]SDTL[Pen][2Nal]Y[dK]-NH2; disulfide I:1-I:7, II:1-II:7; linker I:10-II:10 via Diglycolyl)
- IC50 [1]: < 10 nM
- half-life at 22 μM ([4]; simulated intestinal fluid (SIF) with 1% porcine pancreatin): < 20 min
- IC50 [2]: 100 to 500 nM
